Values quoted from earlier work as cited in PMC6780087 (Marine Drugs, 2019).

Assays:
NaChBac [1] = conditions: ref [54]
NaChBac [2] = conditions: ref [55]

## CC(C)c1cccc(C(C)C)c1O [propofol]
NaChBac [1]
  effect on NaChBac: inhibits peak currents and promotes activation-linked inactivation in NaChBac
NaChBac [2]
  binding to NaChBac: binding to multiple channel sites
